Read-outs that look alike come from different tables or passages of the source.
Columns and labels:
[1] = Cecil and McPhee; cited from earlier work
[2] = tested on: L1210 cells in primary culture; experiment: Growth of L1210 cells in primary culture (obtained directly from the mouse) with copper; assay type: cell-based
Description: (The cells also were incubated for 40 hours). (See FIG. 3 of Mohindru, A., Fisher, J. M., and Rabinovitz, M. "2,9-Dimethyl-1,10-phenanthroline (neocuproine): A Potent, Copper-dependent Cytotoxin With Anti-tumor Activity.)" A concentration of 10 μM was more than adequate as a potentiating dose, but at this concentration other metal ions (Zn^++, Mn^++, CO^++, Ni^++, Cr^+++) were ineffective. […] Such cells fail to grow unless supplemented with an appropriate mercaptan or disulfide (See curve .smallcircle.--.smallcircle. in FIG. 3). […] Thus, both the organic and inorganic moieties of this invention show high specificity in this inhibition.

L1210 cells [3] = experiment: Inhibition of growth of L1210 cells in culture (growth fraction); assay type: cell-based, murine; conditions: for protection from growth inhibition by copper-SMETH: copper-SMETH 15 and 30 μM; for potentiation of SMETH by other metal ions: 10 μM; for stereospecificity result with 10 μM copper sulfate: 10 μM instead of 50 μM copper; for IC50: potentiation of growth inhibition by DL-SMETH 75 or 100 μM, estimated by interpolation, read-out: Conc. for 50% further inhibition; for activity at 50 µM: L1210, L-SMETH 50 μM, read-out: growth (percent of control)
Description: Cytotoxicity of SMETH was assessed as follows. Cells were harvested at mid-log phase (8-10×10^5 cells/ml) washed with fresh growth medium and resuspended at 1×10^5 cells per ml as determined by a model ZBI Coulter Counter (Coulter Electronics, Hialeah, Fla.). Suspensions (7 ml) were added to 25 cm^2 Corning flasks, and SMETH, 20 mM in water, with or without copper sulfate, 2 mM in water were added as dilutions in water at no greater than 10 μl/ml of the cell suspension.
(§1) Cells were grown at 37° C. for designated times in tightly stoppered flasks and cell density was determined as indicated above. Cell volume distribution was monitored with a C1000 Channelyzer with standard size latex particles (Coulter) as reference. The results are expressed as growth fraction (N--No/No) or as percent growth fraction compared to appropriate controls.
(The cells also were incubated for 40 hours).
1 with S-(methylthio)-DL-homocysteine DL-SMETH, (See curve .smallcircle.--.smallcircle. in FIG. 4) and with the pure L-enantiomorph, L-SMETH, (See curve -- in FIG. 4).

purine biosynthesis = conditions: literature; cited from earlier work
L1210 cells [4] = experiment: Cell volume of L1210 cells (Channelyzer); assay type: cell-based, murine; conditions: growth inhibition
Description: as §1
(To obtain the data in FIG. 5, the cells were incubated with S-(methylthio)-L-homocysteine 15 μM, (curve .smallcircle.--.smallcircle.) and 30 μM (curve -- )together with their corresponding concentrations of copper sulfate). […] To obtain the data in FIG. 6, the cells were incubated for 14 hours in the medium described in the above section entitled Growth And Its Inhibition In Cell Culture, but containing only 1 mM glutamine, 1/2 the normal concentration. […] At the end of the incubation, the cell density in the inhibited culture was determined, and &he entire population centrifuged for analysis. An aliquot containing an equal number of cells from the control culture was removed for comparison, and both samples processed and analyzed as described in the above section entitled Analysis of Nucleoside Triphosphate Pools. […]
To obtain the data in FIG. 7, cells were incubated under standard conditions with S-(methylthio)-L -homocysteine and copper sulfate, each 15 μM, and cell volume monitored during the course of the incubation. […]

lymphoblasts = conditions: with added adenosine and deoxycoformycin; cited from earlier work
methionine metabolism = conditions: via its adenosyl derivative; cited from earlier work
endothelial cell = conditions: via copper catalyzed hydrogen peroxide generation; cited from earlier work
cellular methylations = conditions: cited from earlier work

Compound: N[C@@H](CCSSCC[C@H](N)C(=O)O)C(=O)O [homocystine]
- rate of reaction with silver ion relative to cystine [1]: 267 times

Compound: CSSC[C@H](N)C(=O)O [4-thiamethionine, S-(methylthio)-L-cysteine]
- growth support with copper ion ([2]; 4TM 50 μM): supported growth which was independent of copper ion concentration
- cytotoxicity in the presence of copper ([2]; L1210 primary culture): not cytotoxic in the presence of copper
- protection from growth inhibition by copper ([2]; L1210 primary culture): protected L1210 cells in primary culture from growth inhibition by copper

Compound: NC(=O)CC[C@H](N)C(=O)O [Glutamine]
- protection against SMETH and SMETH plus Cu++ (L1210 cells [3]; glutamine, millimolar concentrations): protected cells against SMETH and SMETH plug Cu^++

Compound: OCCSSCCO [Hydroxyethyl Disulfide (HEDS), Hydroxyethyl Disulfide]
- growth promotion and its inhibition by copper ([2]; high copper concentrations): promoted growth, but this was inhibited by high copper concentrations

Compound: Nc1nc2c(ncn2[C@@H]2O[C@H](CO)[C@@H](O)[C@H]2O)c(=O)[nH]1 [guanosine]
- protection from growth inhibition by copper-SMETH (L1210 cells [3]): ineffective in such protection

Compound: [Cr+3] [Cr^+++]
- potentiation of SMETH by other metal ions (L1210 cells [3]): ineffective

Compound: [Zn+2] [Zn^++]
- potentiation of SMETH by other metal ions (L1210 cells [3]): ineffective

Compound: [N-]=[N+]=CC(=O)CC[C@H](N)C(=O)O [diazo-oxo-norleucine, 6-diazo-5-oxo-norleucine]
- sites blocked in purine biosynthesis (purine biosynthesis): also block some sites in purine biosynthesis

Compound: CSSCCC(N)C(=O)O (racemic) [DL-SMETH, S-(methylthio)-DL-homocysteine]
- inhibition of cellular proliferation (L1210 cells [3]): potent inhibitor of cellular proliferation
- stereospecificity result with 10 μM copper sulfate (L1210 cells [3]): nearly identical results
- range of inhibitory concentration of SMETH with copper ion (L1210 cells [3]; 40 hours, copper ion present): both reduced and narrowed in the presence of copper ion
- percent inhibition (L1210 cells [3]; DL-SMETH 75 μm alone): 46%
- percent inhibition (L1210 cells [3]; DL-SMETH 75 μm plus adenosine 10 μm, deoxycoformycin 20 μm): 46%
- minimal effective concentration (L1210 cells [3]; Mus musculus, L1210, 40 hours, without copper, read-out: threshold level): 25 µM
- cytotoxicity to L1210 cells (L1210 cells [3]; alone, 40 hours): cytotoxic to L1210 cells in culture when present at a broad range of micromolar concentrations
- relative activity of racemic form (vs D-SMETH as printed) (L1210 cells [3]; copper ion 50 μM): half as active as D-SMETH
- effect of copper ion on inhibition by SMETH (L1210 cells [3]; threshold SMETH 25 μM with micromolar copper ion, 40 hours): completely inhibitory concentration
- cell volume change over a two day period (L1210 cells [4]): progressive increase in cell volume

Compound: N[C@H]1CCSC1=O [L-Homocysteine Thiolactone]
- percent inhibition (L1210 cells [3]; L-homocysteine thiolactone 200 μM plus adenosine 10 μM, deoxycoformycin 20 μM): 39%
- inhibition at 200 µM (L1210 cells [3]; Mus musculus, L1210, L-homocysteine thiolactone 200 μM alone, read-out: percent inhibition): 5%
- growth block (lymphoblasts): can block growth

Compound: [N-]=[N+]=CC(=O)OC[C@H](N)C(=O)O [azaserine]
- sites blocked in purine biosynthesis (purine biosynthesis): also block some sites in purine biosynthesis

Compound: CC(C)C[C@H](N)C(=O)O [L-Leucine]
- IC50 (L1210 cells [3]): 1000 µM

Compound: N[C@@H](CCS)C(=O)O [Homocysteine]
- toxicity by blocking methionine metabolism (methionine metabolism): toxic by blocking methionine metabolism
- endothelial cell damage (endothelial cell): promote endothelial cell damage

Compound: [Ni+2] [Ni^++]
- potentiation of SMETH by other metal ions (L1210 cells [3]): ineffective

Compound: N[C@H](C(=O)O)[C@@H]1CC(Cl)=NO1 [acivicin, (alphaS,5S)-alpha-amino-3-chloro-4,5-dihydro-5-isoxazoleacetizacid]
- sites blocked in purine biosynthesis (purine biosynthesis): also block some sites in purine biosynthesis

Compound: CSCC[C@H](N)C(=O)O [L-Methionine]
- IC50 (L1210 cells [3]): 2000 µM

Compound: [Mn+2] [Mn^++]
- potentiation of SMETH by other metal ions (L1210 cells [3]): ineffective

Compound: Nc1ncnc2c1ncn2[C@@H]1O[C@H](CSCC[C@H](N)C(=O)O)[C@@H](O)[C@H]1O [S-adenosylhomocysteine]
- inhibition of cellular methylations (cellular methylations): potent inhibitor of cellular methylations
- inhibition of cellular methylations (cellular methylations; listed as Adenosylhomocysteine): potent inhibitor of cellular methylation processes

Compound: Nc1ccn([C@@H]2O[C@H](CO)[C@@H](O)[C@H]2O)c(=O)n1 [Cytidine]
- protection from growth inhibition by copper-SMETH (L1210 cells [3]): protected the cells from growth inhibition, and this protection was non-competitive

Compound: CSSCC[C@@H](N)C(=O)O [D-SMETH]
- activity of D-SMETH (L1210 cells [3]; 50 μM with 50 μM copper ion): completely inactive

Compound: O=c1ccn([C@@H]2O[C@H](CO)[C@@H](O)[C@H]2O)c(=O)[nH]1 [Uridine]
- protection from growth inhibition by copper-SMETH (L1210 cells [3]): ineffective in such protection

Compound: CCCC[C@H](N)C(=O)O [L-Norleucine]
- IC50 (L1210 cells [3]): 2500 µM

Compound: CSSCC[C@H](N)C(=O)O [L-SMETH, S-(methylthio)-L-homocysteine]
- stereospecificity result with 10 μM copper sulfate (L1210 cells [3]): nearly identical results
- activity at 50 µM (L1210 cells [3]; Mus musculus, glutamine 0.5 mM): 15%
- activity at 50 µM (L1210 cells [3]; Mus musculus, glutamine 1.0 mM): 31%
- activity at 50 µM (L1210 cells [3]; Mus musculus, glutamine 2.0 mM): 58%
- activity at 50 µM (L1210 cells [3]; Mus musculus, glutamine 4.0 mM): 98%

Compound: Nc1ncnc2c1ncn2[C@@H]1O[C@H](CO)[C@@H](O)[C@H]1O [Adenosine]
- toxicity of adenosine (L1210 cells [3]; 10 μM alone): not toxic to L1210 cells
- toxicity of adenosine with L-homocysteinethiolactone (L1210 cells [3]; 10 μM with non-toxic concentration of L-homocysteinethiolactone): toxic when added together with a non-toxic concentration of L-homocysteinethiolactone
- effect of adenosine on SMETH potency (L1210 cells [3]; toxic dose of SMETH): did not increase the potency of a toxic dose of SMETH

Compound: O=S(=O)([O-])[O-].[Cu+2] [copper ion, copper sulfate]
- toxicity of the ion itself (L1210 cells [3]; copper ion alone, at much higher levels than micromolar potentiating levels): non -toxic itself at much higher levels
- potentiating dose of copper ion (L1210 cells [3]; with SMETH, 40 hours, "more than adequate"): ≤ 10 µM

Compound: [Co+2] [CO^++]
- potentiation of SMETH by other metal ions (L1210 cells [3]): ineffective

Compound: DL-Isopropionine
- IC50 (L1210 cells [3]): 2000 µM

Compound: CCSC[C@H](N)C(=O)O [S-Ethyl-L-cysteine]
- IC50 (L1210 cells [3]): 1000 µM

Reference: US5124351A, “Pharmaceutical compositions for the treatment of cancers susceptible to treatment with the copper complex of S-(methylthio)-DL-homocysteine or the L-enantimorph thereof” (The United States of America as represented by the …, priority 1989, dated 1992)
